Source: US9416115B2, “Fused heterocyclic compounds as ion channel modulators” (Gilead Sciences, Inc., priority 2013, dated 2016)

Tests used:
[1] = molecular target: hNav1.1 (SCN1A) (Homo sapiens, UniProt P35498); experiment: Use-dependent inhibition of the CNS Nav1.1 sodium channel; format: cell-based; conditions: use-dependent block, 25 Hz, pulse 20, read-out: Nav1.1 UDB 25 Hz 10 uM
How it was run: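 HEK-293 cells stably expressing WT hNav1.1, automated whole-cell patch clamp at 23-25 °C with CsF-based internal and NaCl external solutions, pH 7.35. Compound applied twice, 200 s equilibration; block measured at pulse 20 of a 25 Hz train (0 mV, 20 ms) from −120 mV, as mean % inhibition versus compound-free.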

[2] = molecular target: T1, hNaV1.2 (SCN2A) (Homo sapiens, UniProt Q99250); experiment: Use-dependent inhibition of the CNS Nav1.2 sodium channel; format: cell-based; conditions: use-dependent block, 25 Hz, pulse 20, read-out: Nav1.2 UDB 25 Hz 10 uM
T1 construct: expressed in transfected cells
Protocol: HEK-293 cells stably expressing wild-type (WT) hNaV1.2 (SCN2A NCBI # NM_021007.2, SCN1B NCBI # NM_001037.4, SCN2B NCBI # NM_004588.2) were used to record INa. Cells are maintained with standard tissue culture procedures and stable channel expression is maintained with 800 ug/mL G418 and 3 ug/mL Puromycin in the culture medium. Unless otherwise noted, all reagents are purchased from Sigma-Aldrich (St Louis, Mo., U.S.A.).
Assays measuring Use-Dependent Block (UDB) of Nav1.2 are performed on an automated electrophysiology platform, QPatch 16X or QPatch HT (Sophion Bioscience, Copenhagen, Denmark), using the whole cell patch clamp technique to measure currents through the cell membrane. Series resistance compensation is set to 100% and series resistance and whole-cell compensation are performed automatically. Currents stored in the Sophion Bioscience Oracle database (Sophion Bioscience, Copenhagen, Denmark). Analysis is performed using QPatch Assay software and data are compiled in Excel 2010 (Microsoft, Seattle, Wash., U.S.A.).
The internal (pipette) solution consists of (in mM) 105 CsF, 10 NaF, 20 CsCl, 2 EGTA, 10 HEPES, 10 Dextrose with a pH of 7.35 and osmolarity of 300 mOsmol/kg. The external (bath) solution contains in (mM): 145 NaCl, 4 KCl, 1.8 CaCl2, 1 MgCl2, 10 dextrose, 10 HEPES, with a pH of 7.35 and osmolarity of 310 mOsmol/kg. Experiments are carried out at 23-25° C.
Compound stocks are routinely made by the Gilead Sample Bank in vials to 10 mM in dimethyl sulfoxide (DMSO). In some cases, when compounds are not soluble in DMSO, they are made in 100% ethanol. Stocks are sonicated as necessary. […]
Cells are allowed to stabilize for 10 min after establishment of the whole-cell configuration before current is measured. The test compound is applied 2 times at 60 second intervals. After the second compound addition, a 200 second wait period was imposed to allow for equilibration. Leak currents are subtracted by using an online P/4 procedure and all currents are low-pass Bessel filtered at 5 kHz and digitized at […].
Results are presented as mean percentage inhibition.
Use-dependent block of Nav1.2 peak current is measured during pulse number 20 of a voltage pulse train (0 mV, 20 ms, 20 pulses, 25 Hz) from a holding potential of −120 mV.
Currents are normalized to the peak current recorded in response to the first pulse in each frequency train. The voltage protocol for UDB was performed in the absence and presence of compound and percentage inhibition was calculated with respect to the compound free condition.

T1 sequence (Q99250 whole entry): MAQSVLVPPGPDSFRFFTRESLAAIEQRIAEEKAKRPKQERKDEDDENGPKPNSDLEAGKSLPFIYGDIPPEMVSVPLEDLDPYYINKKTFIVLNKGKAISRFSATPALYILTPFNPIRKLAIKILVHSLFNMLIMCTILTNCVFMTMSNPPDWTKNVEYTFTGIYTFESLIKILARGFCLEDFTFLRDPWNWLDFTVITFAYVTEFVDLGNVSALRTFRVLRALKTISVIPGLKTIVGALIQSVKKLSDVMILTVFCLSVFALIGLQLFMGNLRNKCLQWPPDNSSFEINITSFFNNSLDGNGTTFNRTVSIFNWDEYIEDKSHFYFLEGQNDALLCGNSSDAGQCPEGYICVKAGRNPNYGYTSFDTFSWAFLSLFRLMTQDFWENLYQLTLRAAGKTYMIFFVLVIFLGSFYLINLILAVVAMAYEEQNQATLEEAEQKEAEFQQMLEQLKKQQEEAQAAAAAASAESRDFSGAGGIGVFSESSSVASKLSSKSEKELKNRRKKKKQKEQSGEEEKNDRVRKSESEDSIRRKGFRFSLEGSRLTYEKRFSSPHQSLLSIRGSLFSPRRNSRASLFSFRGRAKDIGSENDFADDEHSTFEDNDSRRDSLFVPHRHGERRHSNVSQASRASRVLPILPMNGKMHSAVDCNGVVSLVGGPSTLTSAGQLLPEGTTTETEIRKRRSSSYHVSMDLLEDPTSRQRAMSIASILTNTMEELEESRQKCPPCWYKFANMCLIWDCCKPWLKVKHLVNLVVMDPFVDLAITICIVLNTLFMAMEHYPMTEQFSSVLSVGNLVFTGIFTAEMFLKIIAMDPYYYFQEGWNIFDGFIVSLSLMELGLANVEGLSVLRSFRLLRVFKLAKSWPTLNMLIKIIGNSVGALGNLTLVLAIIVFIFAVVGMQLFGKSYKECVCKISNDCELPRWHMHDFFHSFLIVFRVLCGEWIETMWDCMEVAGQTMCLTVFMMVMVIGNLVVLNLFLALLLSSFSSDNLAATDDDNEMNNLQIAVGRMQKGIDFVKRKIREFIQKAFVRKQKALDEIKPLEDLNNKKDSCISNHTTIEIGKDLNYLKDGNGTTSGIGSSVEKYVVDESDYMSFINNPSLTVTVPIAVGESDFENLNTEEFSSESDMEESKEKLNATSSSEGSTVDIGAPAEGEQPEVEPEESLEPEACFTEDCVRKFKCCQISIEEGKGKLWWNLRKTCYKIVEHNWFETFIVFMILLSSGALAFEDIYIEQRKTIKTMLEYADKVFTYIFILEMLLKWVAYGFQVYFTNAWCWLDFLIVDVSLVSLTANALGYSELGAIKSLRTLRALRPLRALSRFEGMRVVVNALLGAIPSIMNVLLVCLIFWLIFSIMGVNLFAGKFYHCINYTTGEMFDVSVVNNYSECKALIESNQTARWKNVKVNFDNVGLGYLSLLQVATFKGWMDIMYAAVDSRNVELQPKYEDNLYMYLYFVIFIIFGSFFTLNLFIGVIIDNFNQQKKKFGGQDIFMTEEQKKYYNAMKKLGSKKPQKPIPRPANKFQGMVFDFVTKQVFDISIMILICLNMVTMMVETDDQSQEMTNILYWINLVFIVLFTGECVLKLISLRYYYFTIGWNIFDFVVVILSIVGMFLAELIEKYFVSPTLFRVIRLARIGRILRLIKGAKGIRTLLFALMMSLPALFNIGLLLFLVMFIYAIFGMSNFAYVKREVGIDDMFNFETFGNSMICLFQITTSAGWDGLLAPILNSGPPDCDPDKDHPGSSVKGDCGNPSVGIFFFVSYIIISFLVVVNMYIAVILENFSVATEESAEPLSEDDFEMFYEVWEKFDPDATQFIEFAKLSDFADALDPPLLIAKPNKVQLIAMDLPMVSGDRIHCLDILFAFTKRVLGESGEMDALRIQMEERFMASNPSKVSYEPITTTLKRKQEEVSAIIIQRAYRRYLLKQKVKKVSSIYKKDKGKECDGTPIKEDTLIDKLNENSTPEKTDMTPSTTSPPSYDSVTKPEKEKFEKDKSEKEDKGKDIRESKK
T1 sequence (Q07699 19-218 partner): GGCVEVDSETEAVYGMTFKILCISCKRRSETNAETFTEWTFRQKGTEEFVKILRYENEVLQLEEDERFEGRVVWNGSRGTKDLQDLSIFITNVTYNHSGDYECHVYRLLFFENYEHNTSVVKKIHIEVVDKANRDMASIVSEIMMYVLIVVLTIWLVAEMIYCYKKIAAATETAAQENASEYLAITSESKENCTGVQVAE
T1 sequence (O60939 30-215 partner): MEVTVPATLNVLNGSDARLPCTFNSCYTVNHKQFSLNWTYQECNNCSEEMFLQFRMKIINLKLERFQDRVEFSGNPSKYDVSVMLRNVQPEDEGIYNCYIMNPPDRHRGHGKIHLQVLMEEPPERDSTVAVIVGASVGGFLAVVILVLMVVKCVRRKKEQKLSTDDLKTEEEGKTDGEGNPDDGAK

| SMILES | inhibition at 10 µM [1] | inhibition at 10 µM [2] |
| --- | --- | --- |
| FC(F)(F)Oc1ccc(-c2ccc3onc(OCc4cccnn4)c3c2)cc1 [Example 74, 3-(pyridazin-3-ylmethoxy)-5-(4-(trifluoromethoxy)phenyl)benzo[d]isoxazole] | < 5% | < 5% |
| C[C@@H](N)COc1noc2ccc(-c3ccc(OC(F)(F)F)cc3)cc12 [Example 117, (R)-1-((5-(4-(trifluoromethoxy)phenyl)benzo[d]isoxazol-3-yl)oxy)propan-2-amine] | 80.9% | 88.4% |
| Cc1cnc(COc2noc3ccc(-c4ccc(OC(F)(F)F)cc4)cc23)cn1 [Example 73, 3-((5-methylpyrazin-2-yl)methoxy)-5-(4-(trifluoromethoxy)phenyl)benzo[d]isoxazole] | 10.1% | < 5% |
| Fc1cc(C(F)(F)F)ccc1-c1ccc2onc(OCc3ncccn3)c2c1 [Example 6, 5-(2-fluoro-4-(trifluoromethyl)phenyl)-3-(pyrimidin-2-ylmethoxy)benzo[d]isoxazole] | < 5% | < 5% |
| Cc1cc(-c2ccc(OC(F)(F)F)cc2)cc2c(OCc3nnc(C4CC4)o3)noc12 [Example 105, 3-((5-cyclopropyl-1,3,4-oxadiazol-2-yl)methoxy)-7-methyl-5-(4-(trifluoromethoxy)phenyl)benzo[d]isoxazole] | 75.7% | 70.9% |
| O=C1OCCN1CCOc1noc2ccc(-c3ccc(OC(F)(F)F)cc3)cc12 [Example 75, 3-(2-((5-(4-(trifluoromethoxy)phenyl)benzo[d]isoxazol-3-yl)oxy)ethyl)oxazolidin-2-one] | 34.2% | 27.1% |
| FC(F)(F)Oc1ccc(-c2ccc3onc(OCc4ncco4)c3c2)cc1 [Example 53, 3-(oxazol-2-ylmethoxy)-5-(4-(trifluoromethoxy)phenyl)benzo[d]isoxazole] | < 5% | < 5% |
| FC(F)(F)Oc1ccc(-c2ccc3onc(-n4cnc(C(F)(F)F)c4)c3c2)cc1 [Example 145, 5-(4-(trifluoromethoxy)phenyl)-3-(4-(trifluoromethyl)-1H-imidazol-1-yl)benzo[d]isoxazole] | 81.4% | 75.8% |
| Cc1nnc(COc2noc3ccc(-c4ccc(OC(F)(F)F)cc4)cc23)o1 [Example 99, 3-((5-methyl-1,3,4-oxadiazol-2-yl)methoxy)-5-(4-(trifluoromethoxy)phenyl)benzo[d]isoxazole] | 30% | 50.5% |
| Cc1nnc(COc2noc3c(F)cc(-c4ccc(OC(F)(F)F)cc4)cc23)o1 [Example 155, 7-fluoro-3-((5-methyl-1,3,4-oxadiazol-2-yl)methoxy)-5-(4-(trifluoromethoxy)phenyl)benzo[d]isoxazole] | 63.5% | 58.6% |
| CC(C)(C)OC(=O)COc1noc2ccc(-c3ccc(OC(F)(F)F)cc3)cc12 [Example 157, tert-butyl 2-((5-(4-(trifluoromethoxy)phenyl)benzo[d]isoxazol-3-yl)oxy)acetate] | < 5% | < 5% |
| FC(F)(F)Oc1ccc(-c2ccc3onc(-n4ccnc4)c3c2)cc1 [Example 132, 3-(1H-imidazol-1-yl)-5-(4-(trifluoromethoxy)phenyl)benzo[d]isoxazole] | < 5% | < 5% |
| O=C1CCCN1CCNc1noc2ccc(-c3ccc(OC(F)(F)F)cc3)cc12 [Example 135, 1-(2-((5-(4-(trifluoromethoxy)phenyl)benzo[d]isoxazol-3-yl)amino)ethyl)pyrrolidin-2-one] | 87.2% | 76.5% |
| FC(F)(F)Oc1ccc(-c2ccc3onc(NCCn4cncn4)c3c2)cc1 [Example 137, N-(2-(1H-1,2,4-triazol-1-yl)ethyl)-5-(4-(trifluoromethoxy)phenyl)benzo[d]isoxazol-3-amine] | 82.6% | 86% |
| FC(F)(F)Oc1ccc(-c2ccc3onc(OCc4nnc(C5CC5)s4)c3c2)cc1 [Example 154, 3-((5-cyclopropyl-1,3,4-thiadiazol-2-yl)methoxy)-5-(4-(trifluoromethoxy)phenyl)benzo[d]isoxazole] | 19.8% | 27% |
| CCN(CC)C(=O)COc1noc2ccc(-c3ccc(OC(F)(F)F)cc3)cc12 [Example 150, N,N-diethyl-2-((5-(4-(trifluoromethoxy)phenyl)benzo[d]isoxazol-3-yl)oxy)acetamide] | 62.8% | 51% |
| CC(C)(C)OC(=O)N1CCOC[C@H]1COc1noc2ccc(-c3ccc(OC(F)(F)F)cc3)cc12 [Example 111, tert-butyl(S)-3-(((5-(4-(trifluoromethoxy)phenyl)benzo[d]isoxazol-3-yl)oxy)methyl)morpholine-4-carboxylate] | 50.4% | 47.3% |
| CC(C)c1nnc(COc2noc3ccc(-c4ccc(OC(F)(F)F)cc4)cc23)o1 [Example 100, 3-((5-isopropyl-1,3,4-oxadiazol-2-yl)methoxy)-5-(4-(trifluoromethoxy)phenyl)benzo[d]isoxazole] | 9.9% | 11% |
| Fc1cc(-c2ccc(OC(F)(F)F)cc2)cc2c(OCc3nnc(C4CC4)o3)noc12 [Example 104, 3-((5-cyclopropyl-1,3,4-oxadiazol-2-yl)methoxy)-7-fluoro-5-(4-(trifluoromethoxy)phenyl)benzo[d]isoxazole] | 53.1% | 57% |
| COCCOc1noc2ccc(-c3ccc(OC(F)(F)F)cc3)cc12 [Example 60, 3-(2-methoxyethoxy)-5-(4-(trifluoromethoxy)phenyl)benzo[d]isoxazole] | 27% | < 5% |
| FC(F)(F)Oc1ccc(-c2ccc3onc(Oc4ncccn4)c3c2)cc1 [Example 124, 3-(pyrimidin-2-yloxy)-5-(4-(trifluoromethoxy)phenyl)benzo[d]isoxazole] | 35% | 44.9% |
| FC(F)(F)Oc1ccc(-c2ccc3onc(NCC4CC4)c3c2)cc1 [Example 128, N-(cyclopropylmethyl)-5-(4-(trifluoromethoxy)phenyl)benzo[d]isoxazol-3-amine] | < 5% | < 5% |
| CN1CCN(c2noc3ccc(-c4ccc(OC(F)(F)F)cc4)cc23)CC1 [Example 127, 3-(4-methylpiperazin-1-yl)-5-(4-(trifluoromethoxy)phenyl)benzo[d]isoxazole] | 82.8% | 76.5% |
| O=C(COc1noc2ccc(-c3ccc(OC(F)(F)F)cc3)cc12)N1CCCC1 [Example 121, 1-(pyrrolidin-1-yl)-2-((5-(4-(trifluoromethoxy)phenyl)benzo[d]isoxazol-3-yl)oxy)ethan-1-one] | 43.6% | 57.8% |
| FC(F)(F)c1ccc(-c2ccc3onc(OCc4ncccn4)c3c2)cc1 [Example 9, 3-(pyrimidin-2-ylmethoxy)-5-(4-(trifluoromethyl)phenyl)benzo[d]isoxazole] | < 5% | < 5% |
| COc1ccnc(CNc2noc3ccc(-c4ccc(OC(F)(F)F)cc4)cc23)n1 [Example 149, N-((4-methoxypyrimidin-2-yl)methyl)-5-(4-(trifluoromethoxy)phenyl)benzo[d]isoxazol-3-amine] | 50% | 44.4% |
